Test results reported in paper PMC11785675, “Phase Ib study of the oral PI3Kδ inhibitor linperlisib in patients with advanced solid tumors” (International Journal of Clinical Oncology, 2024).

Experiments:
[1] = tested on: relapsed or refractory B-cell hematological malignancies; design: method as in PMID 34425850; conditions: phase Ia, cited from earlier work
[2] = Phase Ib trial: pharmacokinetics of linperlisib 80 mg once daily; type: in vivo, human
Protocol: Pharmacokinetic analysis included the first 13 patients enrolled in this study who received linperlisib at 80 mg once daily.

[3] = single-dose 14C-YY-20394 tracer study; cited from earlier work
[4] = tested on: patients with advanced solid tumors; conditions: 80 mg/day oral;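 further: phase Ib open-label single-arm trial, once-daily dosing in 28-day cycles, adverse events graded by NCI CTCAE v5.0, recorded until at least 30 days post last dose, incidence as patient counts and percentages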
Protocol: (§1) This phase Ib, single-arm, open-label, multi-center clinical trial recruited patients with advanced or metastatic solid tumors from eight sites in China.
(§2) The main exclusion criteria included prior use of PI3K targeted agents and clinically symptomatic central nervous system metastasis or meningeal metastasis.
(§3) Patients received oral linperlisib 80 mg once per day, taken with warm water either 1 h prior to or 2 h after a meal every day, in a 28-day cycle. Dose adjustments, including holds and reductions, were mandated for grade 3/4 hematologic and grade 3 non-hematologic toxicity. Treatment with linperlisib continued until disease progression, intolerable toxicity, withdrawal of informed consent, death or any other conditions deemed by the investigator to warrant drug discontinuation.
(§4) Physical examination, assessment of ECOG performance status, clinical laboratory evaluations, electrocardiogram, and other safety evaluations were conducted to assess safety. AEs were graded according to the National Cancer Institute Common Terminology Criteria for Adverse Events (CTCAE), Version 5.0. All AEs were recorded from the time of signing the informed consent to at least 30 days after the last dose, and were followed until resolution or stabilization. Patients underwent radiographic assessments every 8 weeks by enhanced computed tomography or magnetic resonance imaging according to RECIST 1.1.
(§5) The primary endpoint was safety as assessed by monitoring the frequency, duration, and severity of AEs. Secondary endpoints were efficacy endpoints, including ORR, DCR, and progression-free survival (PFS).
(§6) Baseline data are presented descriptively. ORR is determined by the proportion of patients who achieve a confirmed complete response (CR) or partial response (PR) as the best overall response, and is presented with CIs. PFS and overall survival (OS) curves are generated using the Kaplan–Meier method. The incidence of AEs and serious AEs (SAEs) are reported as numbers and percentages.

[5] = tested on: malignant B cells and primary tumor cell lines; conditions: preclinical data, no reference given; cited from earlier work
advanced solid tumors = assay: Phase Ib trial of oral linperlisib: efficacy (RECIST 1.1); type: in vivo, human; conditions: 80 mg/day oral;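 further: Open-label single-arm multicenter study in China, once-daily dosing over 28-day cycles, response judged by contrast CT or MRI every 8 weeks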
Protocol: as §1, §2, §3, §4, §5, §6

CT26 cancer model = conditions: preclinical findings, no reference given; cited from earlier work

## COc1ncc(-c2nc(N3CCOCC3)nc3c(CN4CCC(C(C)(C)O)CC4)cc(F)cc23)cc1NS(C)(=O)=O [linperlisib]
[1]; 20 to 200 mg, 16/25, 95% CI 45.2–82.8
  Objective response rate (ORR): 64%
[1]; 20 to 200 mg, 18/25, 95% CI 54.4–89.6
  Disease control rate (DCR): 72%
[1]; highest 200 mg/day dose
  Dose-limiting toxicities: no dose-limiting toxicities were observed
[2]; 80 mg once daily
  Accumulation after multiple administrations: no accumulation was observed
[2]; 80 mg once daily, cycle 1, day 7, range 68.4–232
  Trough levels: 167.7 ng/mL
[2]; 80 mg once daily, listed as Linperlisib
  Accumulation after multiple administrations: no accumulation is observed
[2]; 80 mg oral
  Absorption after a single dose: rapidly absorbed
[2]; human, plasma, single dose oral 80 mg qd, n = 13, read-out: Vz/F, mean (SD)
  Vd/F: 251 L
[2]; human, single dose oral 80 mg qd, n = 13, plasma, read-out: AUC0-24, mean (SD)
  AUC(0-t): 4920 ng·h/mL
[2]; human, single dose oral 80 mg qd, n = 13, plasma, read-out: AUC0-∞, mean (SD)
  AUC(0-inf): 7260 ng·h/mL
[2]; human, single dose oral 80 mg qd, n = 13, plasma, read-out: Cmax, mean (SD)
  Cmax: 364 ng/mL
[2]; human, single dose oral 80 mg qd, n = 13, plasma, read-out: MRT, median (range)
  MRT: 18.9 h
[2]; human, single dose oral 80 mg qd, n = 13, plasma, read-out: T1/2, mean (SD) (converted)
  half-life: 14.3 h
[2]; human, single dose oral 80 mg qd, n = 13, plasma, read-out: Tmax, median (range)
  Tmax: 3.9 h
[2]; single dose oral 80 mg qd, n = 13
  CL/F, mean (SD): 13.5 (4.9) L/h
[3]
  Route of excretion: primarily excreted through the kidneys
[4]
  Incidence of hyperglycemia related to linperlisib, ≥ grade 3: 0%
[4]; 94 patients
  Grade ≥ 3 TEAE anemia: 3.2%
  Grade ≥ 3 TEAE diarrhea: 4.3%
  Grade ≥ 3 TEAE increased ALT: 3.2%
  Grade ≥ 3 TEAE increased AST: 3.2%
  Grade ≥ 3 TEAE increased blood alkaline phosphatase: 3.2%
  Grade ≥ 3 TEAE neutropenia: 3.2%
  Patients who suspended linperlisib due to TRAEs: 19.1%
  Patients who terminated linperlisib due to vomiting, esophagitis, gastritis, or drug eruption: 2.1%
  Patients who withdrew from the trial because of TRAEs: 5.3%
  Patients with SAEs related to linperlisib: 10.6%
  Patients with TEAEs of grade 3 or greater: 45.7%
  Patients with TRAEs of grade 3 or greater: 28.7%
  Patients with at least one TEAE: 97.9%
  Patients with at least one treatment-related AE (TRAE): 89.4%
  Patients with dose reduction (elevated γ-glutamyltransferase and diarrhea): 2.1%
  TEAE abdominal pain, all grades: 11 (11.7) n (%)
  TEAE abdominal pain, grade ≥ 3: 1 (1.1) n (%)
  TEAE anemia, all grades: 20 (21.3) n (%)
  TEAE anemia, all grades irrespective of causality: 21.3%
  TEAE anemia, grade ≥ 3: 3 (3.2) n (%)
  TEAE asthenia, all grades: 15 (16.0) n (%)
  TEAE asthenia, grade ≥ 3: 0 n (%)
  TEAE decreased appetite, all grades: 24 (25.5) n (%)
  TEAE decreased appetite, all grades irrespective of causality: 25.5%
  TEAE decreased appetite, grade ≥ 3: 1 (1.1) n (%)
  TEAE diarrhea, all grades: 11 (11.7) n (%)
  TEAE diarrhea, grade ≥ 3: 4 (4.3) n (%)
  TEAE elevated γ-glutamyltransferase, all grades: 18 (19.1) n (%)
  TEAE elevated γ-glutamyltransferase, grade ≥ 3: 2 (2.1) n (%)
  TEAE hypercholesterolemia, all grades: 12 (12.8) n (%)
  TEAE hypercholesterolemia, grade ≥ 3: 1 (1.1) n (%)
  TEAE hypertriglyceridemia, all grades: 10 (10.6) n (%)
  TEAE hypertriglyceridemia, grade ≥ 3: 0 n (%)
  TEAE hypoalbuminemia, all grades: 15 (16.0) n (%)
  TEAE hypoalbuminemia, grade ≥ 3: 0 n (%)
  TEAE hyponatremia, all grades: 15 (16.0) n (%)
  TEAE hyponatremia, grade ≥ 3: 1 (1.1) n (%)
  TEAE increased ALT, all grades: 21 (22.3) n (%)
  TEAE increased ALT, all grades irrespective of causality: 22.3%
  TEAE increased ALT, grade ≥ 3: 3 (3.2) n (%)
  TEAE increased AST, all grades: 25 (26.6) n (%)
  TEAE increased AST, all grades irrespective of causality: 26.6%
  TEAE increased AST, grade ≥ 3: 3 (3.2) n (%)
  TEAE increased blood alkaline phosphatase, all grades: 15 (16.0) n (%)
  TEAE increased blood alkaline phosphatase, grade ≥ 3: 3 (3.2) n (%)
  TEAE increased blood bilirubin, all grades: 16 (17.0) n (%)
  TEAE increased blood bilirubin, grade ≥ 3: 1 (1.1) n (%)
  TEAE increased blood creatinine, all grades: 18 (19.1) n (%)
  TEAE increased blood creatinine, grade ≥ 3: 2 (2.1) n (%)
  TEAE increased blood lactate dehydrogenase, all grades: 13 (13.8) n (%)
  TEAE increased blood lactate dehydrogenase, grade ≥ 3: 0 n (%)
  TEAE leukopenia, all grades: 16 (17.0) n (%)
  TEAE leukopenia, grade ≥ 3: 1 (1.1) n (%)
  TEAE nausea, all grades: 16 (17.0) n (%)
  TEAE nausea, grade ≥ 3: 0 n (%)
  TEAE neutropenia, all grades: 13 (13.8) n (%)
  TEAE neutropenia, grade ≥ 3: 3 (3.2) n (%)
  TEAE protein urine present, all grades: 10 (10.6) n (%)
  TEAE protein urine present, grade ≥ 3: 0 n (%)
  TEAE proteinuria, all grades: 25 (26.6) n (%)
  TEAE proteinuria, all grades irrespective of causality: 26.6%
  TEAE proteinuria, grade ≥ 3: 0 n (%)
  TEAE pyrexia, all grades: 10 (10.6) n (%)
  TEAE pyrexia, grade ≥ 3: 0 n (%)
  TEAE rash, all grades: 14 (14.9) n (%)
  TEAE rash, grade ≥ 3: 2 (2.1) n (%)
  TEAE vomiting, all grades: 15 (16.0) n (%)
  TEAE vomiting, grade ≥ 3: 2 (2.1) n (%)
  TEAE weight loss, all grades: 20 (21.3) n (%)
  TEAE weight loss, all grades irrespective of causality: 21.3%
  TEAE weight loss, grade ≥ 3: 0 n (%)
  TRAE decreased appetite: 18.1%
  TRAE elevated γ-glutamyltransferase: 16.0%
  TRAE increased ALT: 18.1%
  TRAE increased AST: 22.3%
  TRAE proteinuria: 21.3%
  TRAEs leading to death: No TRAEs leading to death were reported
[4]; 94 patients, 29 SAEs
  Patients with SAEs of grade 3 or greater: 27.7%
[4]; 94 patients, data cutoff April 03, 2023
  Patients who discontinued treatment due to AEs: 21.3%
[4]; 94 patients, thirty-five SAEs
  Patients with SAEs: 30.9%
[4]; all grades
  Incidence of hyperglycemia related to linperlisib: 2.1%
[4]; compared with other PI3K inhibitors
  Incidence of diarrhea, colitis, and hepatotoxicity: very low
[5]
  Apoptosis and proliferation: induce apoptosis and inhibit the proliferation
Advanced solid tumors
  DCR in patients with thymic carcinoma: 50%
  DCR, patients with less than three prior lines of therapy: 46.3%
Advanced solid tumors; 94 patients
  Progressive disease as best response: Thirty-nine
  Stable disease: 34 patients
Advanced solid tumors; 94 patients, 95% CI 1.79–1.88
  Median progression-free survival (PFS): 1.85 months
Advanced solid tumors; 94 patients, median follow-up 4.2 months
  Median overall survival (OS): not reached
Advanced solid tumors; 94 patients, one thymoma patient
  Complete response (CR) rate: 1.1%
Advanced solid tumors; all 94 patients, 95% CI 0.0–5.8
  Objective response rate (ORR): 1.1%
Advanced solid tumors; all 94 patients, 95% CI 27.5–47.8
  Disease control rate (DCR): 37.2%
Advanced solid tumors; n = 1
  DCR, anal cancer: 1 (100.0) n (%)
  DCR, endometrial cancer: 0 (0.0) n (%)
  DCR, esophageal cancer: 0 (0.0) n (%)
  DCR, lung neuroendocrine carcinoma: 1 (100.0) n (%)
  DCR, lung squamous cell carcinoma: 0 (0.0) n (%)
  DCR, oral cavity cancer: 1 (100.0) n (%)
  DCR, ovarian cancer: 1 (100.0) n (%)
  DCR, pancreatic cancer: 1 (100.0) n (%)
  DCR, parotid carcinoma: 0 (0.0) n (%)
  DCR, thymoma: 1 (100.0) n (%)
  ORR, anal cancer: 0 (0.0) n (%)
  ORR, endometrial cancer: 0 (0.0) n (%)
  ORR, esophageal cancer: 0 (0.0) n (%)
  ORR, lung neuroendocrine carcinoma: 0 (0.0) n (%)
  ORR, lung squamous cell carcinoma: 0 (0.0) n (%)
  ORR, oral cavity cancer: 0 (0.0) n (%)
  ORR, ovarian cancer: 0 (0.0) n (%)
  ORR, pancreatic cancer: 0 (0.0) n (%)
  ORR, parotid carcinoma: 0 (0.0) n (%)
  ORR, thymoma: 1 (100.0) n (%)
Advanced solid tumors; n = 2
  DCR, carcinoma of renal pelvis: 1 (50.0) n (%)
  DCR, cholangiocarcinoma: 0 (0.0) n (%)
  DCR, hepatocellular carcinoma: 0 (0.0) n (%)
  ORR, carcinoma of renal pelvis: 0 (0.0) n (%)
  ORR, cholangiocarcinoma: 0 (0.0) n (%)
  ORR, hepatocellular carcinoma: 0 (0.0) n (%)
Advanced solid tumors; n = 3
  DCR, gallbladder cancer: 2 (66.7) n (%)
  DCR, nasopharyngeal carcinoma: 2 (66.7) n (%)
  ORR, gallbladder cancer: 0 (0.0) n (%)
  ORR, nasopharyngeal carcinoma: 0 (0.0) n (%)
Advanced solid tumors; n = 4
  DCR, gastric cancer: 1 (25.0) n (%)
  ORR, gastric cancer: 0 (0.0) n (%)
Advanced solid tumors; n = 5
  DCR, renal cell carcinoma: 2 (40.0) n (%)
  ORR, renal cell carcinoma: 0 (0.0) n (%)
Advanced solid tumors; n = 6
  DCR, lung adenocarcinoma: 3 (50.0) n (%)
  ORR, lung adenocarcinoma: 0 (0.0) n (%)
Advanced solid tumors; n = 8
  DCR, breast cancer: 1 (12.5) n (%)
  ORR, breast cancer: 0 (0.0) n (%)
Advanced solid tumors; n = 9
  DCR, sarcoma: 3 (33.3) n (%)
  ORR, sarcoma: 0 (0.0) n (%)
Advanced solid tumors; n = 11
  DCR, colon cancer: 3 (27.3) n (%)
  ORR, colon cancer: 0 (0.0) n (%)
Advanced solid tumors; n = 13
  DCR, rectal cancer: 3 (23.1) n (%)
  ORR, rectal cancer: 0 (0.0) n (%)
Advanced solid tumors; n = 16
  DCR, thymic carcinoma: 8 (50.0) n (%)
  ORR, thymic carcinoma: 0 (0.0) n (%)
Advanced solid tumors; n = 25
  DCR, lung and mediastinal tumors, total: 13 (52.0) n (%)
  ORR, lung and mediastinal tumors, total: 1 (4.0) n (%)
Advanced solid tumors; n = 31
  DCR, other types of tumor, total: 11 (35.5) n (%)
  ORR, other types of tumor, total: 0 (0.0) n (%)
Advanced solid tumors; n = 38
  DCR, gastrointestinal tumors, total: 11 (28.9) n (%)
  ORR, gastrointestinal tumors, total: 0 (0.0) n (%)
Advanced solid tumors; thymoma, gallbladder cancer, anal canal squamous cell carcinoma, renal cell carcinoma, renal pelvis cancer
  Shrinkage of target lesions: more than 20%
Advanced solid tumors; two patients with HCC
  Target lesion change in patients with HCC: one of them had shrinkage of target lesions
CT26 cancer model
  Tumor volume: reduced tumor volume
